Experimental findings from ChEMBL document CHEMBL1139922, “Discovery and structure-activity relationship studies of indole derivatives as liver X receptor (LXR) agonists” (Bioorg Med Chem Lett, 2007) are described below.

The structures appear in SMILES notation.

A word on the EC50: it is the concentration giving half of the maximal effect.

This assay has as its target T1, Oxysterols receptor LXR-beta (Homo sapiens, UniProt P55055).
T1 sequence (P55055 whole entry): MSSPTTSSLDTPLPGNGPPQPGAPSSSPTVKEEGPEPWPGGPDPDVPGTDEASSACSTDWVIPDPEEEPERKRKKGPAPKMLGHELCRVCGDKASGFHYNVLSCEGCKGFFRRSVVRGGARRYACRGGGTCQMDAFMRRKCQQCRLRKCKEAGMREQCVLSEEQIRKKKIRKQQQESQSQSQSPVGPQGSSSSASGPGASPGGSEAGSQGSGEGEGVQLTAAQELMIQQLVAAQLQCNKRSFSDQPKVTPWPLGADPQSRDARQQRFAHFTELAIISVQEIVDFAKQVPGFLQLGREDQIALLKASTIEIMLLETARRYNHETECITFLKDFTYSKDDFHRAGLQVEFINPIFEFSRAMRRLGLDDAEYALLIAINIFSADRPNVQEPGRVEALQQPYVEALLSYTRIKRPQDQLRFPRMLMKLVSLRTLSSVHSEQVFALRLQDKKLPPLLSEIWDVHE
Nature of the assay: Agonist activity at LXRbeta LBD by HTRF cofactor peptide recruitment assay. Type of assay: functional. A general note: TR-FRET usually uses a lanthanide donor and a delayed reading to cut background.
`CC(C)(C)OC(=O)n1c(-c2ccc3c(c2)CC(NS(=O)(=O)c2ccccc2)C3)cc2cc(O)ccc21` (centres undefined) gave an EC50 greater than 30000 nM.
In turn, `CC(C)(C)OC(=O)n1c(-c2ccc3c(c2)CC(NS(=O)(=O)c2ccccc2)C3)cc2cc(F)ccc21` (centres undefined) came in with an EC50 of 1500 nM. That is a single-digit micromolar value.
Next, `Cc1ccc2c(c1)cc(-c1ccc3c(c1)CC(NS(=O)(=O)c1ccccc1)C3)n2C(=O)OC(C)(C)C` (centres undefined): 18000 nM; `CC(C)(C)OC(=O)n1c(-c2ccc3c(c2)CC(NS(=O)(=O)c2ccccc2)C3)cc2ccc(O)cc21` (centres undefined): 670 nM.
The value for `CC(C)(C)OC(=O)n1c(-c2ccc3c(c2)C[C@H](NS(=O)(=O)c2ccccc2)C3)cc2ccccc21` was 660 nM.
`CC(C)(C)OC(=O)n1c(-c2ccc3c(c2)C[C@@H](NS(=O)(=O)c2ccccc2)C3)cc2ccccc21`: the response was half-maximal at 130 nM (EC50).
The value for `O=S(=O)(NC1Cc2ccc(-c3cc4ccccc4[nH]3)cc2C1)c1ccccc1` (centres undefined) was greater than 30000 nM; that for `CCOC(=O)n1c(-c2ccc3c(c2)CC(NS(=O)(=O)c2ccccc2)C3)cc2ccccc21` (centres undefined) was 1600 nM.
Next, `CC(C)CCOC(=O)n1c(-c2ccc3c(c2)CC(NS(=O)(=O)c2ccccc2)C3)cc2ccccc21` (centres undefined): 1300 nM.
The value for `CCCCC(C)COC(=O)n1c(-c2ccc3c(c2)CC(NS(=O)(=O)c2ccccc2)C3)cc2ccccc21` (centres undefined) was greater than 30000 nM; that for `O=S(=O)(NC1Cc2ccc(-c3cc4ccccc4n3S(=O)(=O)c3ccccc3)cc2C1)c1ccccc1` (centres undefined) was greater than 30000 nM.
In turn, `O=C(C1CCCC1)n1c(-c2ccc3c(c2)CC(NS(=O)(=O)c2ccccc2)C3)cc2ccccc21` (centres undefined) came in with an EC50 of 900 nM.
Compound `CC(C)(C)CC(=O)n1c(-c2ccc3c(c2)CC(NS(=O)(=O)c2ccccc2)C3)cc2ccccc21` (centres undefined) returned an EC50 greater than 30000 nM.
`Cn1c(-c2ccc3c(c2)CC(NS(=O)(=O)c2ccccc2)C3)cc2ccccc21` (centres undefined) came in with an EC50 greater than 30000 nM.
Consider `CC(C)(C)OC(=O)Cn1c(-c2ccc3c(c2)CC(NS(=O)(=O)c2ccccc2)C3)cc2ccccc21` (centres undefined), for which the EC50 is greater than 30000 nM.
The value for `O=S(=O)(NC1Cc2ccc(-c3cc4ccccc4n3CCCOCc3ccccc3)cc2C1)c1ccccc1` (centres undefined) was greater than 30000 nM; that for `O=S(=O)(NC1Cc2ccc(-c3cc4ccccc4n3CCc3ccccc3)cc2C1)c1ccccc1` (centres undefined) was greater than 10000 nM.
The value for `CC(C)(C)OC(=O)n1c(-c2ccc3c(c2)CC(NS(=O)(=O)c2ccc(-c4ccccc4)cc2)C3)cc2ccccc21` (centres undefined) was 2100 nM; that for `CC(C)(C)OC(=O)n1c(-c2ccc3c(c2)CC(NS(=O)(=O)c2ccc(Cl)cc2)C3)cc2ccccc21` (centres undefined) was 1160 nM; that for `Cc1ccc(S(=O)(=O)NC2Cc3ccc(-c4cc5ccccc5n4C(=O)OC(C)(C)C)cc3C2)cc1` (centres undefined) was 430 nM.
The value for `CC(C)(C)OC(=O)n1c(-c2ccc3c(c2)CC(NS(=O)(=O)c2ccc(C(F)(F)F)cc2)C3)cc2ccccc21` (centres undefined) was 730 nM; that for `Cc1cccc(S(=O)(=O)NC2Cc3ccc(-c4cc5ccccc5n4C(=O)OC(C)(C)C)cc3C2)c1` (centres undefined) was 1330 nM; that for `COc1cccc(S(=O)(=O)NC2Cc3ccc(-c4cc5ccccc5n4C(=O)OC(C)(C)C)cc3C2)c1` (centres undefined) was 960 nM.
In turn, `CC(C)(C)OC(=O)n1c(-c2ccc3c(c2)CC(NS(=O)(=O)c2cccc(C#N)c2)C3)cc2ccccc21` (centres undefined) returned an EC50 of 460 nM.
Take `COC(=O)c1ccccc1S(=O)(=O)NC1Cc2ccc(-c3cc4ccccc4n3C(=O)OC(C)(C)C)cc2C1` (centres undefined): the EC50 stood at 600 nM.
Next, `CC(C)(C)OC(=O)n1c(-c2ccc3c(c2)CC(NS(=O)(=O)c2ccccc2C(=O)O)C3)cc2ccccc21` (centres undefined): 3350 nM; `CC(C)(C)OC(=O)n1c(-c2ccc3c(c2)CC(NS(=O)(=O)c2ccccc2)C3)cc2cc(OCc3ccccc3)ccc21` (centres undefined): greater than 30000 nM; `COc1ccccc1S(=O)(=O)NC1Cc2ccc(-c3cc4ccccc4n3C(=O)OC(C)(C)C)cc2C1` (centres undefined): 600 nM.
Next, `CC(C)(C)OC(=O)n1c(-c2ccc3c(c2)CC(NS(=O)(=O)c2ccccc2C(F)(F)F)C3)cc2ccccc21` (centres undefined): 800 nM; `CC(C)(C)OC(=O)n1c(-c2ccc3c(c2)CC(NS(=O)(=O)c2ccccc2Cl)C3)cc2ccccc21` (centres undefined): 760 nM.
The value for `CC(C)(C)OC(=O)n1c(-c2ccc3c(c2)CC(NC(=O)c2ccccc2O)C3)cc2ccccc21` (centres undefined) was 530 nM; that for `CC(C)(C)OC(=O)n1c(-c2ccc3c(c2)CC(NS(=O)(=O)Cc2ccccc2)C3)cc2ccccc21` (centres undefined) was 520 nM; that for `CC(C)(C)OC(=O)n1c(-c2ccc3c(c2)CC(NC(=O)Nc2ccccc2)C3)cc2ccccc21` (centres undefined) was 1500 nM.
In the case of `CCS(=O)(=O)NC1Cc2ccc(-c3cc4ccccc4n3C(=O)OC(C)(C)C)cc2C1` (centres undefined), the EC50 was 400 nM.
The value for `CC(C)(C)COC(=O)n1c(-c2ccc3c(c2)CC(NS(=O)(=O)c2ccccc2)C3)cc2ccccc21` (centres undefined) was 1400 nM; that for `CC(C)(C)OC(=O)n1c(-c2ccc3c(c2)CC(NS(=O)(=O)c2ccccc2C#N)C3)cc2ccccc21` (centres undefined) was 60 nM; that for `CC(C)(C)OC(=O)n1c(-c2ccc3c(c2)CC(NS(=O)(=O)c2ccccc2F)C3)cc2ccccc21` (centres undefined) was 100 nM.
Next, `O=C(CC1CC1)n1c(-c2ccc3c(c2)CC(NS(=O)(=O)c2ccccc2)C3)cc2ccccc21` (centres undefined): 1160 nM; `CC(C)(C)OC(=O)n1c(-c2ccc3c(c2)CC(NS(=O)(=O)c2ccccc2)C3)cc2c(OCc3ccccc3)cccc21` (centres undefined): greater than 30000 nM.
In turn, `CC(C)(C)OC(=O)n1c(-c2ccc3c(c2)CC(NS(=O)(=O)c2ccccc2)C3)cc2c(O)cccc21` (centres undefined) displayed an EC50 greater than 30000 nM.
Compound `CC(C)(C)OC(=O)n1c(-c2ccc3c(c2)CC(NS(=O)(=O)c2ccccc2)C3)cc2cc(C#N)ccc21` (centres undefined) displayed an EC50 of 26000 nM.
The compound `CC(C)(C)OC(=O)n1c(-c2ccc3c(c2)CC(NS(=O)(=O)c2cccc(Cl)c2)C3)cc2ccccc21` (centres undefined) gave an EC50 of 1810 nM.
The value for `Cc1ccccc1S(=O)(=O)NC1Cc2ccc(-c3cc4ccccc4n3C(=O)OC(C)(C)C)cc2C1` (centres undefined) was 200 nM; that for `CCCCCC(=O)n1c(-c2ccc3c(c2)CC(NS(=O)(=O)c2ccccc2)C3)cc2ccccc21` (centres undefined) was 2100 nM; that for `O=S(=O)(NC1Cc2ccc(-c3cc4ccccc4n3Cc3ccccc3)cc2C1)c1ccccc1` (centres undefined) was greater than 30000 nM.
Compound `Cc1ccc2cc(-c3ccc4c(c3)CC(NS(=O)(=O)c3ccccc3)C4)n(C(=O)OC(C)(C)C)c2c1` (centres undefined) came in with an EC50 of 300 nM.
Next, `COC(=O)n1c(-c2ccc3c(c2)CC(NS(=O)(=O)c2ccccc2)C3)cc2ccccc21` (centres undefined): greater than 30000 nM; `CC(C)(C)OC(=O)n1c(-c2ccc3c(c2)CC(NS(=O)(=O)c2ccccc2)C3)cc2ccc(OCc3ccccc3)cc21` (centres undefined): greater than 30000 nM.
In the case of `COc1ccc2c(c1)cc(-c1ccc3c(c1)CC(NS(=O)(=O)c1ccccc1)C3)n2C(=O)OC(C)(C)C` (centres undefined), the EC50 stood at 28000 nM.
`COc1ccc2cc(-c3ccc4c(c3)CC(NS(=O)(=O)c3ccccc3)C4)n(C(=O)OC(C)(C)C)c2c1` (centres undefined) showed an EC50 of 1600 nM.
The value for `CCc1ccc(S(=O)(=O)NC2Cc3ccc(-c4cc5ccccc5n4C(=O)OC(C)(C)C)cc3C2)cc1` (centres undefined) was 650 nM; that for `Cc1noc(C)c1S(=O)(=O)NC1Cc2ccc(-c3cc4ccccc4n3C(=O)OC(C)(C)C)cc2C1` (centres undefined) was 130 nM; that for `COc1ccc(Cn2c(-c3ccc4c(c3)CC(NS(=O)(=O)c3ccccc3)C4)cc3ccccc32)cc1` (centres undefined) was greater than 30000 nM.
The value for `CC(C)(C)OC(=O)n1c(-c2ccc3c(c2)CC(NS(C)(=O)=O)C3)cc2ccccc21` (centres undefined) was 210 nM.
